Test results as given in US20160075682A1, “INHIBITORS OF NICOTINAMIDE PHOSPHORIBOSYLTRANSFERASE, COMPOSITIONS, PRODUCTS AND USES THEREOF” (UNIVERSITÀ DEGLI STUDI DEL PIEMONTE ORIENTALE "AMEDEO …, priority 2013, published 2016).

Experiments:
[1] = Metabolites generated from hydrolyses in RLM or HLM incubations (LC-ESI-MS); assay type: in vitro ADME, rat, human; details: RLM or HLM incubation, 60 minutes at 37° C.
Protocol: Male Wistar rat liver microsomes (RLM), (protein concentration: 25 mg/ml determined using the Omura and Sato method, total P450: 0.64 nmol/mg protein) were used throughout this study and prepared using an internal protocol. The cryopreserved pooled human liver microsomes (HLM), (pooled mixed sex, ten individual donors, protein concentration: 20 mg/ml, total P450: 0.36 nmol/mg) were purchased from BD Gentest™ (Woburn, Mass.) and used throughout this study.
The standard incubation mixture (1 ml final volume), was carried out in a 50 mM TRIS (Tris[hydroxymethyl]aminomethane) buffer (pH 7.4) containing 10 μl of acetonitrile (1% of total volume), and 50 μM substrate compounds. After pre-equilibration of the mixture, an appropriate volume of RLM or HLM suspension was added to give a final protein concentration of 1.0 mg/mL. The mixture was shaken for 60 minutes at 37° C. Control incubations were carried out without microsomes. Each incubation was stopped by addition of 1 ml ice-cold acetonitrile, vortexed and centrifuged at 11,000 r.p.m. for 5 min. The supernatants were analysed by LC-DAD-UV and LC-ESI-MS systems to determine the metabolic stability (% substrate residue) and the structure of metabolites respectively (Table 1).
A Shimadzu HPLC system (Shimadzu, Kyoto, Japan), consisting of two LC-10AD Vp module pumps, an SLC-10A Vp system controller, an SIL-10AD Vp autosampler, and a DGU-14-A on-line degasser were used for the analysis. Chromatographic separation was performed on a Phenomenex Luna C18(2) 150×4.6 mm (5 μm) (Phenomenex srl, Castel Bolognese, Italy) as a stationary phase protected by a C18 SecurityGuard (Phenomenex srl, Castel Bolognese, Italy). The SPD-M10Avp photodiode array detector was used to detect the analytes. LC-Solution 1.24 software was used to process the chromatograms. Aliquots (20 μL) of supernatants obtained from incubations were injected onto the HPLC system and eluted with a mobile phase (flow rate 1.0 mL/min) consisting of a A: 0.5% formic acid solution, B: acetonitrile/methanol 8:2. A Thermo Finningan LCQ Deca XP plus system equipped with a quaternary pump, a Surveyor AS autosampler, a Surveyor photodiode array detector and a vacuum degasser was used for LC/MS analyses (Thermo Electron Corporation, Waltham, Mass.). All the chromatographic separations were performed on a Phenomenex Luna C18(2)150×2 mm (4 μm) (kept at a 35° C.) as a stationary phase protected by a C18 SecurityGuard (Phenomenex srl, Castel Bolognese, Italy). Aliquots (2.0 μl) of supernatants obtained from incubations were injected onto the system and eluted with a mobile phase (flow rate 0.2 ml/min) consisting of a A: 0.2% formic acid solution, B: acetonitrile/methanol 8:2. The eluate was injected into the electrospray ion source (ESI) and MS and MS^n spectra were acquired and processed using Xcalibur® software. The operating conditions on the ion trap mass spectrometer were as follows: Positive mode, spray voltage, 5.30 kV; source current, 80 μA; capillary temperature, 350° C.; capillary voltage, 21.00 V; tube lens offset, 15.00 V; multipole 1 offset, −5.75 V; multipole 2 offset, −9.00 V; sheath gas flow (N2), 55 Auxiliary Units.

[2] = tested on: Dextran-induced colitis in C57/BJ6 mice; test: Experimental colitis induced by dextran sulfate sodium (DSS); assay type: in vivo; details: i.p., doses of between 20 mg/Kg and 500 mg/Kg
Protocol: Animal work was authorized by the local ethical committee for animal studies (Università del Piemonte Orientale). Colitis was induced in C57/BJ6 mice (Harlan Nossan, Milan, Italy) by addition of DSS (2%) to their daily drinking water for 7 days followed by a 3-day recovery period without DSS. The severity of colitis was assessed using these set of criteria: (1) clinical index (daily changes in body weight; diarrhea and rectal bleeding); (2) macroscopic evidence of colitis (shortening of colon length). On day 10 of the experiment, animals were sacrificed. Treatments were performed with either solvent alone or drugs once a day for the entire duration of the experiments from day 1 to day 7. The colon lengths were measured and colon tissues were harvested for biochemical measurements, histopathological assessment and scoring. (Tang Y, Preuss F, Turek F W, Jakate S, Keshavarzian A. Sleep deprivation worsens inflammation and delays recovery in a mouse model of colitis. Sleep Med. 2009 June; 10(6):597-603).
As previously described, the colon of DNBS- or dextran treated animals was removed after the induction of colitis. Compounds of formula (I) were administered intraperitoneally (i.p.).

[3] = tested on: SH-SY5Y, HeLa; test: MTT cell proliferation assay and trypan blue count (cell viability); assay type: cell-based; details: cells treated for 48 and 72 hours; read-out: IC50 values (inhibition of cellular proliferation, MTT assay and trypan blue assay)
In short: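 SH-SY5Y and HeLa cells, 8×10^5 per well, exposed 48 and 72 h with final DMSO ≤0.5%. Viability by MTT (250 μg/ml, 1 h, A570 after isopropanol/HCl) and by trypan blue count. IC50 from dose-response curves for some compounds.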

Row | SMILES | Metabolites generated from hydrolyses [1] | protection from Dextran-induced colitis as assessed by the macroscopic damage score [2] | IC50 [3] [nM]
1 | c1ccc(-c2ccccc2OCCCCCCn2cc(-c3cccnc3)nn2)cc1 [3-(1-(6-([1,1′-biphenyl]-2-yloxy)hexyl)-1H-1,2,3-triazol-4-yl)pyridine] | no | able to protect | < 300
2 | O=C(NCCCCCCCn1cc(-c2cccnc2)nn1)c1ccccc1-c1ccccc1 [N-(7-(4-(pyridin-3-yl)-1H-1,2,3-triazol-1-yl)heptyl)-[1,1′-biphenyl]-2-carboxamide] | no | able to protect | < 300
